Like-named read-outs stand apart in the source and are kept apart here. No end group written: not given here.
What was measured:
K48-Ub2 [1] = molecular target: T1, K48-Ub2 (Homo sapiens, UniProt P0CG47); assay: SPR binding of cyclic peptides to K48-linked di-ubiquitin
T1 construct: solid phase peptide synthesis of Ub monomers (modified as required); made in house; host or cells: total chemical synthesis (SPPS, isopeptide ligation, desulfurization)
Procedure: The interactions between cyclic peptides: U2i, U2ii, U4i, U4ix and Ub1, ^K48Ub2 and ^K48Ub4, were determined using BIACORE T100 instrument (GE healthcare) equipped with a biotin CAPture kit Series S chip. The buffer in all experiments contained 50 mM HEPES, pH 7.3, 150 mM NaCl, 0.05% Tween20, 2 mM DTT with 0.2% DMSO. Biotinylated Ub1, ^K48Ub2 and ^K48Ub4 were loaded to approximately equal molar amounts on the SPR chip, and various concentrations of cyclic peptides were flowed over at 100 μL/sec for 120 sec, before initiation of dissociation by flowing buffer over at 100 μL/sec for further 700 sec. Traces were fit to the simplest, two-state model for binding. Association was fit to a single exponential assuming pseudo-first order conditions, whereas the dissociation trace was fit to single exponential plus a drift term.
Each peptide was flowed over Ub1, ^K48Ub2 and ^K48Ub2 immobilized on SPR chips.

^K48Ub4 = molecular target: T2, ^K48Ub4 (Homo sapiens, UniProt P0CG47); assay: SPR binding of cyclic peptides to K48-linked tetra-ubiquitin
T2 construct: solid phase peptide synthesis of Ub monomers (modified as required); made in house
Procedure: Surface Plasmon Resonance (SPR)
The interactions between cyclic peptides: U2i, U2ii, U4i, U4ix and Ub1, ^K48Ub2 and ^K48Ub4, were determined using BIACORE T100 instrument (GE healthcare) equipped with a biotin CAPture kit Series S chip. The buffer in all experiments contained 50 mM HEPES, pH 7.3, 150 mM NaCl, 0.05% Tween20, 2 mM DTT with 0.2% DMSO. Biotinylated Ub1, ^K48Ub2 and ^K48Ub4 were loaded to approximately equal molar amounts on the SPR chip, and various concentrations of cyclic peptides were flowed over at […] for 120 sec, before initiation of dissociation by flowing buffer over at […] for further 700 sec. Traces were fit to the simplest, two-state model for binding. Association was fit to a single exponential assuming pseudo-first order conditions, whereas the dissociation trace was fit to single exponential plus a drift term. Finally, due to the poor quality of the traces for U4ix binding ^K48Ub2, the amplitude of the association kinetic trace at different concentrations of peptide was fit to estimate the lower bound for KD.
Each peptide was flowed over Ub1, ^K48Ub2 and […] immobilized on SPR chips. There was no detectable binding to Ub1 for any of the peptides, as expected, as Ub1 binding was explicitly selected against during the RaPID protocol. […] However, Ub2i and Ub2ii also strongly bound ^K48Ub4, with a low apparent KD and an increased SPR response (FIG. 1E). This was consistent with a higher stoichiometry of binding to the tetramer, which could be explained by additional binding sites in ^K48Ub4. Indeed, the ^K48Ub2 structure can be superimposed twice on the ^K48Ub4 crystal structure (FIG. 10). […] However, similar to Ub2i and Ub2ii, Ub4i also bound ^K48Ub2. This was perhaps unsurprising, given the high sequence identity between Ub4i and Ub2i.

USP2 [2] = assay: In vitro deubiquitination assay, USP2 with K48-linked di-Ub; type: biochemical; conditions: di-Ub as the substrate
Procedure: (§1) In Vitro Deubiquitination Assay
(§2) In vitro deubiquitination reactions were performed in a Tris buffer (50 mM TRIS, 1 mM TCEP, pH 7.7), containing 2 μM ^K48Ub2/4, then the specific DUB (50 mM Tris, 0.5 mM EDTA, 1 mM TCEP and 0.5 mg/ml ovalbumin, pH 7.5) was added. The reaction mixtures were incubated at 37° C. and at the indicated time points the reactions were stopped by taking aliquots and mixed them with 3× sample buffer and boiling. The same amounts were loaded on 14% SDS-PAGE, electro-blotted to nitrocellulose membrane and probed with an anti-Ub antibody. Bands were quantified with Image Quant LAS 4000 (GE Healthcare).
(§3) The inventors further chose to examine the effect of these cyclic peptides on two DUBs: OTUB1, a K48-linkage chain specific DUB, and USP2, which cleaves most Ub chains without specificity, using K48-linked di- and tetra-Ub chains as substrates.

^K63Ub2 = molecular target: T3, ^K63Ub2 (Homo sapiens, UniProt P0CG47, K63R); assay: NMR titration with K63-linked di-Ub; type: binding; conditions: up to 2:1 peptide:Ub2
T3 construct: Recombinant Ub monomers carrying chain-terminating mutations; made in house
Procedure: (§4) All NMR studies were performed on Bruker Avance III 600 MHz spectrometer equipped with TCI cryoprobe. The sample temperature was set to 23° C. for Ub2ii binding studies or 25° C. for Ub4ix studies, unless indicated otherwise. The protein (monomeric Ub or Ub chains) samples were prepared in 20 mM sodium phosphate buffer (pH 6.8) containing 5-10% D20 and 0.02% (w/v) NaN3. The Ub2ii peptide was dissolved in deuterated DMSO (up to 20 mM concentration) and titrated in μL amounts into 50 μM ^15N-Ub^WT or K63-linked Ub2 (^15N-enriched in the distal domain) to two molar equivalents. Ub2ii was titrated into 100 μM solutions of proximally- or distally-^15N-enriched ^K48Ub2 to 1:1 or 1:1.3 molar ratio, respectively, as well as into 200 μM ^K48Ub2 with the ^13C/^15N-enriched proximal or distal Ub unit. Ub4ix titration into K48-linked Ub2, Ub3, and Ub4 was performed in a similar manner, with the starting Ub chain concentration of 200 μM; the chain/peptide molar ratio at the endpoint varied from 1:1 (Ub2) to 1:1.5 or 1:2 for Ub3 and Ub4. Several of these titrations were performed twice and at differing protein concentrations, to verify the reproducibility of the observed spectral changes. Separately, a similar amount of DMSO was added to ^15N-labeled Ub to verify that the presence of DMSO in the peptide-containing stock solution had negligible effect on Ub spectra. […]

monomeric Ub = molecular target: T4, monomeric Ub (Homo sapiens, UniProt P0CG47); assay: NMR titration with monomeric Ub; type: binding; conditions: compared with ^K48Ub2
T4 construct: made in house
Procedure: as §4

26S proteasome = assay: In vitro proteasome degradation assay of HA-α-globin-K48-linked tetra-Ub; type: biochemical; conditions: 5.3 μM peptide
USP2 [3] = assay: In vitro deubiquitination assay, USP2 with K48-linked tetra-Ub; type: biochemical; conditions: tetra-Ub chain, after removal of the distal Ub (tri-Ub)
Procedure: as §1, §2, §3

K48-Ub2 [4] = molecular target: T1, K48-Ub2; assay: Deep mutational scanning of J08_mClBz (relative enrichment, MiSeq); type: binding; conditions: single mutation of J08_mClBz
From the text: FIG. 36 is a bar graph showing relative enrichment (log2 E) versus single mutations based on deep scanning (Step 2b in FIG. 34B). E=Positive fraction %/Input fraction % according MiSeq sequencing results. Bars of positive values and negative values indicate potentially favorable and unfavorable mutations, respectively.
Mutation of Leu6 seemed highly flexible which allowed its replacement by either nonpolar or polar residues. […] Based on this information, the inventors prepared nine peptides containing F9Y mutations.

[5] = system: K48-linked Ub elongation on Ring1B; assay: In vitro K48-linked Ub elongation on Ring1B (western blot); type: biochemical
[6] = SPR, target ^K48Ub2, read-out: KD
[7] = range stated in the description, 'as exemplified', read-out: dimeric Ub binding affinity KD
[8] = SPR, target ^K48Ub4, read-out: KD
[9] = range stated in the description, 'as exemplified', read-out: tetrameric Ub binding affinity KD

Molecule	koff (K48-Ub2 [1]; SPR, target ^K48Ub2) [s⁻¹]	kon (K48-Ub2 [1]; SPR, target ^K48Ub2) [M⁻¹ s⁻¹]	Kd (K48-Ub2 [1]; [6]) [nM]	Kd (K48-Ub2 [1]; [7]) [nM]	koff (^K48Ub4; SPR, target ^K48Ub4) [s⁻¹]	kon (^K48Ub4; SPR, target ^K48Ub4) [M⁻¹ s⁻¹]	Kd (^K48Ub4; [8]) [nM]	Kd (^K48Ub4; [9]) [nM]	inhibition of USP2 (USP2 [2]) [%]	inhibition of proteasomal degradation of α-globin-K48-linked tetra-Ub (26S proteasome)	also measured
linear Ub4ix: uncyclized/linear form of Ub4ix (WLYLDDSGDWWICG; not fully specified (residue 1))	–	–	–	–	–	–	–	–	–	no inhibition	–
M*GWFDDLYLFVAY-CG [J08_mClBz]	–	–	–	–	–	–	–	–	–	–	fold improvement of binding affinity (K48-Ub2 [1]; compared with U4i (chloroacetyl-cyclized peptide of same sequence)): 9 fold
*GWFDDLYLYVAYC [J08_mClBz_F9Y]	–	–	–	–	–	–	–	–	–	–	fold improvement of binding affinity (K48-Ub2 [1]; from J08_mClBz): 17 fold; relative enrichment ratio (K48-Ub2 [4]): > 5
*FQYWOYATGVCG [Ub4_a]	–	–	–	–	–	–	–	–	–	clear inhibition	inhibition of K48-linked Ub elongation on Ring1B [5]: inhibit
*FQLWOHAIALCG [Ub4_e]	–	–	–	–	–	–	–	–	–	clear inhibition	inhibition of K48-linked Ub elongation on Ring1B [5]: inhibit

Now from value to molecule, other results behind:

koff (K48-Ub2 [1]; SPR, target ^K48Ub2) [s⁻¹]	kon (K48-Ub2 [1]; SPR, target ^K48Ub2) [M⁻¹ s⁻¹]	Kd (K48-Ub2 [1]; [6]) [nM]	Kd (K48-Ub2 [1]; [7]) [nM]	koff (^K48Ub4; SPR, target ^K48Ub4) [s⁻¹]	kon (^K48Ub4; SPR, target ^K48Ub4) [M⁻¹ s⁻¹]	Kd (^K48Ub4; [8]) [nM]	Kd (^K48Ub4; [9]) [nM]	Molecule	inhibition of USP2 (USP2 [2]) [%]	inhibition of proteasomal degradation of α-globin-K48-linked tetra-Ub (26S proteasome)	also measured
0.016	489000	33 ± 8	30 to 50	0.012	877000	14	10 to 20	CC(C)C[C@@H]1NC(=O)[C@H](Cc2ccc(O)cc2)NC(=O)[C@H](Cc2ccc(O)cc2)NC(=O)[C@H](Cc2ccc(O)cc2)NC(=O)[C@H](CCC(=O)O)NC(=O)[C@H](CCCNC(=N)N)NC(=O)[C@H](CC(=O)O)NC(=O)[C@H](Cc2ccc(O)cc2)NC(=O)[C@H](Cc2c[nH]c3ccccc23)NC(=O)[C@@H](Cc2c[nH]c3ccccc23)NC(=O)CSC[C@@H](C(=O)NCC(N)=O)NC(=O)CNC(=O)[C@H](Cc2ccc(O)cc2)NC(=O)CNC1=O [Ub2ii]	~40	–	binding to K63-linked di-Ub (NMR) (^K63Ub2): non-specific and much weaker; binding to monomeric Ub (NMR) (monomeric Ub): much weaker binding
0.024	262000	91	85 to 115	0.011	407000	26	20 to 35	CC(C)C[C@@H]1NC(=O)[C@H](CC(=O)O)NC(=O)[C@H](CC(=O)O)NC(=O)[C@H](Cc2ccccc2)NC(=O)[C@H](Cc2c[nH]c3ccccc23)NC(=O)CNC(=O)[C@@H](Cc2c[nH]c3ccccc23)NC(=O)CSC[C@@H](C(=O)NCC(N)=O)NC(=O)[C@H](Cc2ccc(O)cc2)NC(=O)[C@H](C)NC(=O)[C@H](C(C)C)NC(=O)[C@H](Cc2ccccc2)NC(=O)[C@H](CC(C)C)NC(=O)[C@H](Cc2ccc(O)cc2)NC1=O [Ub4i]	~40	–	Kd (K48-Ub2 [1]; text and figure legend, K48-Ub2, read-out: KD / binding affinity): 90 nM; inhibition of USP2 (USP2 [3]): strong inhibition
0.024	593000	40 ± 12	20 to 40	0.011	779000	14	15 to 25	CC(C)C[C@@H]1NC(=O)[C@H](CC(N)=O)NC(=O)[C@H](CC(=O)O)NC(=O)[C@H](Cc2ccccc2)NC(=O)[C@H](Cc2c[nH]c3ccccc23)NC(=O)CNC(=O)[C@@H](Cc2c[nH]c3ccccc23)NC(=O)CSC[C@@H](C(=O)NCC(N)=O)NC(=O)[C@H](Cc2c[nH]cn2)NC(=O)[C@H]([C@@H](C)O)NC(=O)[C@H](C(C)C)NC(=O)[C@H](Cc2ccc(O)cc2)NC(=O)[C@H](Cc2c[nH]c3ccccc23)NC(=O)[C@H](Cc2ccc(O)cc2)NC1=O [Ub2i]	~40	–	–

— patent publication US12084523B2, “Ubiquitin high affinity cyclic peptides and methods of use thereof” (TECHNION RESEARCH & DEVELOPMENT FOUNDATION LIMITED, priority 2018, dated 2024)
